Experimental data: patent EP4792822A1, “USE OF PEPTIDE AMIDE COMPOUND IN PREPARATION OF DRUG FOR […] AND VOMITING” (Haisco Pharmaceutical Group Co., Ltd., priority 2023, dated 2025)

Tested on: subjects undergoing elective abdominal surgery under general anaesthesia
Assay: Example 2: placebo/active-controlled clinical study of compound 1 injection for postoperative analgesia (flurbiprofen axetil rescue; nausea and vomiting recorded)
Format: in vivo, patients
Protocol: This study was a multicentre, randomised, double-blind, placebo/active-controlled study. About 387 subjects undergoing elective abdominal surgery under general anaesthesia were planned to be enrolled and randomised to three groups: the compound 1 group (129 subjects), the tramadol group (129 subjects), and the placebo group (129 subjects).
After the end of surgery, MOAA/S scores were assessed every 5 ± 1 min. Once the subjects regained consciousness (defined as the first MOAA/S score of 5), the first resting pain intensity assessment was initiated within 5 min [using the numeric rating scale (NRS), where 0-10 represent varying degrees of pain: 0 represents no pain, higher numbers represent more severe pain, and 10 represents the most severe pain]. It was recommended that the interval between two NRS assessments not exceed 30 min. Within 4 h after the end of surgery, subjects who met all inclusion criteria and none of the exclusion criteria were randomised at a 1 : 1 : 1 ratio into the compound 1 group, the tramadol group or the placebo group. It was recommended that randomisation be performed within 10 min after the first NRS score ≥ 4.
After successful randomisation, to prevent the subjects from enduring pain for a long time, the first dose of compound 1 injection (1 µg/kg/dose), tramadol hydrochloride injection (50 mg/dose), or placebo injection was administered to the subjects by the investigator as soon as possible (recommended within 15 min after successful randomisation). The end time of the first postoperative administration of the study drug was recorded as 0 min. At 8 h (± 15 min) and 16 h (± 15 min) after the end of the first administration, a single corresponding dose of the compound 1 injection, tramadol hydrochloride injection, or placebo injection was administered to the subjects, for a total of three administrations.
Resting NRS score assessments were performed in subjects at 15 min ± 5 min, 30 min ± 5 min, 1 h ± 5 min, 2 h ± 15 min, 4 h ± 15 min, 8 h ± 30 min (within 30 min before the second administration of the study drug), 12 h ± 30 min, 16 h ± 30 min (within 30 min before the third administration of the study drug), 20 h ± 30 min, and 24 h ± 1 h after the end of the first administration of the study drug. The NRS score for resting pain refers to the NRS score assessed when the subject is at rest (e.g., sitting or lying still). If the subject was unconscious at a scheduled NRS assessment time point, the score was recorded as follows: if the previous NRS score was ≥ 2, the current NRS score was recorded as 2; if the previous NRS score was < 2, the current NRS score was recorded as the previous score. Meanwhile, it was documented that the subject was unconscious at the time of assessment.
A flurbiprofen axetil injection was administered via intravenous injection for rescue treatment if the subject complained of pain at any time point after the first administration of the study drug, and the resting pain NRS score was ≥ 4. It was recommended that the time from the subject's NRS assessment to actual administration of flurbiprofen axetil injection be ≤ 30 min; an initial intravenous dose of 50 mg be administered, followed by additional doses as needed. It was also recommended that the interval between two rescue treatments be ≥ 3 h and that the interval between rescue medication and study drug administration be ≥ 1 h. However, rescue treatment could be given at any time for severe pain. […] Rescue details (including resting NRS score before rescue, the time of each use of rescue medication, the dosage of rescue medication, etc.) were recorded truthfully.
Prophylactic antiemetic treatment was prohibited during the study. After the first postoperative administration, the investigator administered antiemetic agents based on the occurrence of nausea and vomiting in the subject, and the dosage of the antiemetic agents was recorded. […]

[1] = Example 2, safety analysis set, N = 129, 1 µg/kg/dose, three administrations
[2] = Example 2, listed as compound 1
[3] = compared with tramadol and placebo
[4] = within 0-12 h and 0-24 h after the first postoperative administration, compared with tramadol and placebo
[5] = within 0-24 h, compared with tramadol and placebo

Structure (SMILES): CC(=O)N1CC2(CCN(C(=O)[C@@H](CCCCN)NC(=O)[C@@H](CC(C)C)NC(=O)[C@@H](Cc3ccccc3)NC(=O)[C@H](N)Cc3ccccc3)CC2)C1 [Compound 1, (2R)-N-[(1R)-1-(2-acetyl-2,7-diazaspiro[3.5]nonane-7-carbonyl)-5-amino-pentyl]-2-[[(2R)-2-[[(2R)-2-amino-3-phenyl-propionyl]amino]-3-phenylpropionyl]amino]-4-methyl-pentanamide]
- Change in incidence of nausea relative to placebo (Example 2): 50% reduction
- Change in incidence of vomiting relative to placebo (Example 2): 47.9% reduction
- overall safety and tolerability (Example 2): good overall safety and tolerability
- serious adverse events (Example 2): No serious adverse events occurred
- Nausea (incidence) [1]: 10.1%
- Vomiting (incidence) [1]: 8.5%
- Change in incidence of nausea relative to placebo [2]: 50 % reduction
- Change in incidence of vomiting relative to placebo [2]: 47.9 % reduction
- SPID0-24 h after the first postoperative administration (compared with placebo): superior to that in the placebo group
- PID at each time point [3]: comparable to those in the tramadol group and significantly lower than those in the placebo group
- SPID0-12 h after the first postoperative administration [3]: comparable to those in the tramadol group and significantly lower than those in the placebo group
- duration of analgesia [3]: comparable to those in the tramadol group and significantly longer than those in the placebo group
- incidence of decreased thyroid-stimulating hormone [3]: slightly higher than that in the tramadol group and the placebo group
- incidences of nausea and vomiting [3]: lower than those in the tramadol group and the placebo group
- subject and investigator satisfaction scores for postoperative analgesia [3]: generally comparable to those in the tramadol group and significantly higher than those in the placebo group
- time to the first use of rescue analgesic agents [3]: comparable to those in the tramadol group and significantly longer than those in the placebo group
- SPID0-24 h after the first postoperative administration (compared with tramadol injection (50 mg/dose)): non-inferior to that in the tramadol injection group
- effect on PONV in patients after abdominal surgery (summary of both Phase III studies (Example 2)): preventive and/or alleviating effect on PONV
- mean cumulative dosage of rescue analgesic agents [4]: comparable to those in the tramadol group and significantly lower than those in the placebo group
- proportion of subjects with NRS scores ≤ 3 [4]: generally comparable to those in the tramadol group and significantly higher than those in the placebo group
- cumulative dosage of other antiemetic agents [5]: higher than those in the tramadol group and the placebo group
- proportion of subjects using other antiemetic agents [5]: slightly lower than those in the tramadol group and the placebo group
- proportion of subjects using tropisetron and the cumulative dosage (within 0-24 h after the first administration, compared with tramadol and placebo): significantly lower than those in the tramadol group and the placebo group
- proportion of subjects using rescue analgesic agents (within 0-24 h after the first postoperative administration, compared with tramadol and placebo): comparable to those in the tramadol group and significantly lower than those in the placebo group
